Here are results for 23 molecules from publication PMC7533260, “Design and tests of prospective property predictions for novel antimalarial 2-aminopropylaminoquinolones” (Journal of Computer-Aided Molecular Design, 2020).

Test [1] deals with truncated enzyme (PfDHODH). More on the design: method as in PMID 16510978. The note with it: assayed under similar conditions; cited from earlier work.
A further test addresses s-RrDHODH. More on the design: method as in PMID 16510978. The note with it: read-out: Ki, s-RrDHODH from rat; cited from earlier work.
Test [2] has as its target full-length enzyme from P. falciparum (PfDHODH). Also noted: method as in PMID 7909690. The conditions noted are these: after solubilization in Triton X-100; cited from earlier work.
The target of a further test is human enzyme (DHODH). Also noted: method as in PMID 16510978. The conditions noted are these: cited from earlier work.
Test [3] has as its target T1, s-PfDHODH (Plasmodium falciparum, UniProt Q08210).
T1 sequence (Q08210 158-569 limits assumed): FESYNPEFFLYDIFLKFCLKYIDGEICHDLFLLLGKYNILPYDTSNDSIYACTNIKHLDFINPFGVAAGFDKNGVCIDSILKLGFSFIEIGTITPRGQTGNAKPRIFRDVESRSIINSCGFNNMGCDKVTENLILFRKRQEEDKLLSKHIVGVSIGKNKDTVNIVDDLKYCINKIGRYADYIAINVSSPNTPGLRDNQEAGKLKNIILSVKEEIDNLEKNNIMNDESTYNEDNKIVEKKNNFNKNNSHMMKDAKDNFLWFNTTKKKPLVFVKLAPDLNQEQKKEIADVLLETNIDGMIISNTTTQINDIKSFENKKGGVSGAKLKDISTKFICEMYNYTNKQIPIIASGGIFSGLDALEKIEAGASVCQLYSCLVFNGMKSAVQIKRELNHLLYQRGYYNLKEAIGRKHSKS
Nature of the test: Inhibition of s-PfDHODH in vitro (Tres Cantos laboratory). The conditions noted are these: read-out: s-PfDHODH in vitro IC50; assayed at the Tres Cantos laboratory.
From the text: The literature data set used to build our PfDHODH inhibition models was based on in vitro assays carried out using the truncated, soluble form of the enzyme introduced by Baldwin et al. [10].

A further test concerns intact PfDHODH. Nature of the test: Rescue from growth inhibition by transfection with ScDHODH (Dd2attB_yeastDHODH vs parental Dd2attB). The format is cell-based, Plasmodium falciparum. The conditions noted are these: P. falciparum in blood culture; Tres Cantos, previously unpublished. An excerpt: Fortunately, there is a way to address this question, though the method is somewhat indirect. P. falciparum parasites engineered to express DHODH from the yeast Saccharamyces cerevisiae (ScDHODH) use fumarate as an oxidizing agent instead of ubiquinone, so their growth is not inhibited by (i.e., they are “rescued from”) inhibitors that compete with ubiquinone. Painter et al. used this technique to validate PfDHODH as an antimalarial drug target.
Unbeknownst to the Simulations Plus and U.C. Riverside groups, the Tres Cantos group had already tested several 2-aminoquinolone actives from the GSK antimalarial data set for rescue by ScDHODH transfection. […] An additional sixteen 2-amino-4-quinolones having different bridging groups were also assayed; three of these were clearly subject to rescue, whereas three yielded ambiguous results.
The Dd2 cell line containing yeast dihydroorotate dehydrogenase (DHODH) and its parental strain were cultured as described in 4.3.1 and potency of compounds determined following procedures outlined in 4.3.2. The ScURA1 gene from Saccharomyces cerevisiae was amplified from genomic DNA and cloned into the pLN-14 vector. The P. falciparum Dd2attB strain was transfected by electroporation, and stable transfectants were selected with blasticidin. Both the Dd2attB_yeastDHODH strain and its parental strain, Dd2attB, were used in these assays to determine if parasite growth inhibition was mediated by inhibition of PfDHODH following rationale previously described in Painter et al..

For test [4], the system named is P. falciparum 3D7 (chloroquine-susceptible). Nature of the test: XC50 in asynchronous blood culture, [3H]hypoxanthine incorporation, strain 3D7. The format is cell-based. The note with it: Plasmodium falciparum, concentration required to reduce parasite growth rate by 50%. On the procedure: (§1) Antimalarial activity in blood culture was determined as previously described at the University of California, Riverside, under conditions essentially identical to those used by GSK [19].
(§2) P. falciparum 3D7A and Dd2 strains used in this study were obtained from the Malaria Research and Reference Reagent Resource Center (MR4). Parasites were grown in human erythrocytes (obtained from a transfusion blood bank in Madrid, Spain) with Albumax II medium as previously described. RPMI 1640 medium (Gibco) was supplemented with 0.5% Albumax II (Invitrogen), 2% D-sucrose (Sigma-Aldrich), 0.3% glutamine (Sigma-Aldrich), and 150 µM hypoxanthine (Sigma-Aldrich). Cultures were maintained at 37°C at an atmosphere of 5% O2, 5% CO2, and 90% N2.
(§3) Parasite growth inhibition assays and 50% inhibitory concentration (XC50) determinations were carried out by following standard methods using the [^3H]hypoxanthine incorporation assay. Briefly, cultures with 0.5% parasitemia and 2% hematocrit were incubated with the drug as described for 48 h. After this period, parasites were harvested and the amount of incorporated radiolabeled precursor was determined. Radioactivity was added 24 h before harvesting of the parasites.

In test [5] the test system is P. falciparum Dd2 (chloroquine-resistant). Nature of the test: XC50 in asynchronous blood culture, [3H]hypoxanthine incorporation, strain Dd2. The format is cell-based, Plasmodium falciparum. The note with it: for IC50: Plasmodium falciparum, DD2, concentration required to reduce parasite growth rate by 50%, chloroquine-resistant strain, asynchronous blood culture; for Resistance ratio (±): ratio of XC50 between resistant (Dd2) and susceptible (3d7) strains. On the procedure: as §1, §2, §3

The target in test [6] is T1, s-PfDHODH. Also noted: method as in earlier work. The conditions noted are these: literature data used to construct QSAR models; cited from earlier work.
For test [7], the target named is T1, s-PfDHODH. Nature of the test: Literature inhibition data for soluble recombinant PfDHODH (s-PfDHODH), dodecylubiquinone as substrate. The format is biochemical. From the text:
Data on PfDHODH inhibition were collected from the literature for a structurally diverse group of compounds. These included triazolopyrimidines, diphenylureas, and 2-cyano-3-hydroxy acrylanilides, among others. Quantitative data were not available for inhibition of the intact enzyme, which is bound to the mitochondrial membrane by its hydrophobic N-terminus in vivo [16]. […] The very low solubility of CoQ-10 limits its utility in vitro, so an artificial ubiquinone (dodecylubiquinone [DQ]) is usually used as substrate instead.
The IC50 data for these 89 compounds were converted to inhibition constants (Ki’s) by assuming competitive inhibition against DQ and applying the method described by Cheng and Prusoff. Two artificial neural network ensemble (ANNE) regression models were constructed (henceforth referred to as Model A and Model B) using ADMET Modeler™ module of ADMET Predictor® [18]. The models were built on distinct 20% hold-out test sets (see Supplementary Methods for details).

Where [8] appears, read: converted from literature IC50 assuming competitive inhibition against DQ (Cheng and Prusoff), read-out: PfDHODH Ki.

Like-named read-outs stand apart in the source and are kept apart here. Where only a bound is given, the exact number is not on record here.

A word on the Ki: it is the equilibrium dissociation constant of an inhibitor or competing ligand from its target. In the case of `O=C1C(O)=C([C@H]2CC[C@H](c3ccc(Cl)cc3)CC2)C(=O)c2ccccc21` [Atovaquone], the Ki was > 500 µM in test [1], ~0.08 µM on s-RrDHODH, 27 µM in test [2] and ~2 µM at human enzyme (DHODH).
One may read the IC50 as the concentration that gives 50% inhibition. Turning to `O=C(O)C(O)C(=O)O` [CID 44,537,350], the IC50 at s-PfDHODH [3] stood at 0.86 µM.
Take `O=c1cc(NCC2(CNCc3cn(Cc4ccccc4)c4ccccc34)CCCCC2)[nH]c2ccccc12` [CID 10300864]: the “rescue of parasites from growth inhibition by ScDHODH transfection” value in the test with intact PfDHODH is reported as “rescued”.
`CCOc1c(CNCCCNc2cc(=O)c3ccccc3[nH]2)cc(Br)cc1OC` [CID 44373601]: the “rescue of parasites from growth inhibition by ScDHODH transfection” value in the test on intact PfDHODH is “not rescued”.
For `O=c1cc(NC[C@H]2CCC[C@@H]2NC2CCCc3c2[nH]c2ccccc32)[nH]c2ccccc12` (stereo partly shown) [CID 44533954], in the test on intact PfDHODH, the “rescue of parasites from growth inhibition by ScDHODH transfection” value is on record as “not rescued”.
For `O=c1cc(NCCCNCc2sc(Br)nc2Br)[nH]c2ccccc12` [CID 44534653], in the test with intact PfDHODH, the “rescue of parasites from growth inhibition by ScDHODH transfection” value is reported as “rescued”.
As for `COc1ccc2[nH]c(NCC3(CNC4CCNc5ccccc54)CCCC3)cc(=O)c2c1` (stereo not shown) [Compound 11c, 6-methoxy-2-(1-((1,2,3,4-tetrahydroquinolin-4-yl)aminomethyl)cyclopentyl)methylamino-1H-quinolin-4-one], the IC50 in [4] is 0.37 µM. In [5], the IC50 amounted to 1.78 µM and the “Resistance ratio (±)” value is given as 4.8.
The like results for `Cn1cc(CNCC2(CNc3cc(=O)c4ccccc4[nH]3)CCCC2)n(C)c1=O` [Compound 12a, 2-(1-((1,3-dimethyl-2-oxo-imidazol-4-yl)methylaminomethyl)cyclopentyl)methylamino-1H-quinolin-4-one] were, in that order, 10 µM, 46 µM and 4.6.
Taken in the same sequence, the figures for `Cn1cc(CNCC2(CNc3cc(=O)c4cc(Cl)ccc4[nH]3)CCCC2)n(C)c1=O` [Compound 12b, 6-chloro-2-(1-((1,3-dimethyl-2-oxo-imidazol-4-yl)methylaminomethyl)cyclopentyl)methylamino-1H-quinolin-4-one] were 1.61 µM, 6.4 µM and 3.9.
With `C/C(O)=C(/C#N)C(=O)Nc1ccc(-c2ccccc2Cl)cc1Cl` [Compound D17], the IC50 at s-PfDHODH [6] was 4 µM. The Ki on s-PfDHODH [7] (setting [8]) stood at 0.48 µM.
For the molecule `C/C(O)=C(\C#N)C(=O)Nc1ccc(-c2ccccc2Cl)cc1C(F)(F)F` [Compound D18], the IC50 on s-PfDHODH [6] was 6.2 µM. Moreover, the Ki at s-PfDHODH [7] (setting [8]) was 0.73 µM.
As for `COc1ccccc1-c1ccc(NC(=O)/C(C#N)=C(\C)O)c(Cl)c1` [Compound D19], the IC50 at s-PfDHODH [6] was 8.6 µM. For the same molecule, at s-PfDHODH [7] (setting [8]), the Ki worked out at 1 µM.
In the case of `C/C(O)=C(/C#N)C(=O)Nc1ccc(-c2cccc(Cl)c2Cl)cc1Cl` [Compound D20], on s-PfDHODH [6], the IC50 was 9.9 µM. The Ki on s-PfDHODH [7] (setting [8]) came to 1.2 µM.
With `C/C(O)=C(/C#N)C(=O)Nc1ccc(-c2c(Cl)cccc2Cl)cc1Cl` [Compound D21], at s-PfDHODH [6], the IC50 was 10.2 µM. Also, on s-PfDHODH [7], the Ki turned out to be 1.2 µM.
Take `C/C(O)=C(/C#N)C(=O)Nc1ccc(-c2cccc(Cl)c2)cc1Cl` [Compound D22]: the IC50 on s-PfDHODH [6] was 49.1 µM. Further, the Ki on s-PfDHODH [7] (setting [8]) stood at 5.8 µM.
`C/C(O)=C(\C#N)C(=O)Nc1ccc(-c2cccc(Cl)c2)cc1C(F)(F)F` [Compound D23]: the IC50 at s-PfDHODH [6] was 57.2 µM. Also, the Ki on s-PfDHODH [7] is 6.8 µM.
On to `C/C(O)=C(/C#N)C(=O)Nc1ccc(-c2ccccc2Cl)c(Cl)c1` [Compound D24], for which, on s-PfDHODH [6], the IC50 is 165 µM. The Ki on s-PfDHODH [7] came out at 20.5 µM.
For the molecule `C/C(O)=C(/C#N)C(=O)Nc1ccc(-c2cccc(Cl)c2)c(Cl)c1` [Compound D25], on s-PfDHODH [6], the IC50 is 237 µM. Further, the inhibitory constant (Ki) at s-PfDHODH [7] (setting [8]) amounted to 28 µM.
As to `C/C(O)=C(/C#N)C(=O)Nc1ccc(-c2cccc(Cl)c2Cl)cc1` [Compound D26], the IC50 on s-PfDHODH [6] was 27.2 µM. Besides, the Ki on s-PfDHODH [7] (setting [8]) came to 3.2 µM.
For the molecule `C/C(O)=C(/C#N)C(=O)Nc1ccc(-c2ccccc2Cl)cc1` [Compound D27], the 50% inhibitory concentration (IC50) at s-PfDHODH [6] was 47.4 µM. Moreover, the Ki on s-PfDHODH [7] is 5.6 µM.
As for `C/C(O)=C(/C#N)C(=O)Nc1ccc(-c2ccccc2)cc1Cl` [Compound D28], at s-PfDHODH [6], the IC50 is 51.1 µM. Besides, the Ki on s-PfDHODH [7] (setting [8]) turned out to be 6 µM.
On to `CCOc1cccc(-c2ccc(NC(=O)/C(C#N)=C(\C)O)cc2)c1` [Compound D29], for which, on s-PfDHODH [6], the IC50 is 182 µM. Also, the inhibition constant Ki on s-PfDHODH [7] was 21.5 µM.
With `Cc1cc(Nc2ccc(C(F)(F)F)c(F)c2)n2ncnc2n1` [Compound G47], the IC50 on s-PfDHODH [6] is 0.08 µM. Also, the Ki on s-PfDHODH [7] came out at 0.03 µM.
